Measured values as given in patent US20170368054A1, “Treatment of Glaucoma Using Laquinimod” (Teva Pharmaceutical Industries, Ltd., priority 2013, published 2017).

Columns and labels:
[1] = test system: rat model of chronic ocular hypertension (OHT)/glaucoma; assay: Intraocular pressure (IOP) measurement, Tono-Pen Vet tonometer, rat OHT model; format: in vivo, Brown Norway rats (Rattus norvegicus); settings: average of 5 weekly post-HSI measurements, groups matched for Mean ΔIOP
Experimental: For each IOP measurement time-point following the 2nd HSI, the IOP elevation was calculated as the difference between the IOP in the left eye with OHT and that in the non-OHT right eye (ΔIOP). The ΔIOP for the 5 weekly post-HSI IOP measurements were averaged and constituted the Mean ΔIOP for each animal. […] Other animals were removed from the study. Baseline IOP measurements were taken before the initial dose administration. After application of topical anesthesia (0.5% Proparacaine HCl Ophthalmic Solution), IOP was measured on conscious rats on both eyes using a Tono-Pen Vet tonometer (Reichert, Inc.; Depew, N.Y.). Ten (10) IOP readings are recorded from each eye and averaged. IOP measurements were taken around the same time (e.g., between 10 a.m. and 2 p.m.) across measurement time-points to minimize the circadian variability of IOP. IOP measurements were taken once weekly starting one week after the second HSI until euthanasia (a total of 5 measurements). After application of topical anesthesia (0.5% Proparacaine HCl Ophthalmic Solution), IOP was measured on conscious rats on both eyes using a Tono-Pen Vet tonometer (Reichert, Inc.; Depew, N.Y.). For each time-point, ten (10) IOP readings were recorded from each eye and averaged. IOP measurements were taken around the same time (e.g., between 10 a.m. and 2 p.m.) across measurement time-points to minimize the circadian variability of IOP. The IOP measurements were evaluated as follows: For each time-point following the HSI, the IOP elevation was calculated as the difference between the level in the left eye with OHT and that in the normal right eye (ΔIOP). The ΔIOP of the 5-weekly post-HSI IOP measurements were averaged and constitute the Mean ΔIOP for each animal. For each group, ten (10) animals with a sustained IOP elevation in the OHT eye were selected from a larger pool and groups are matched for the Mean ΔIOP. Other animals were removed from the study and euthanized. […] For each time-point following the HSI, the IOP elevation was calculated as the difference between the level in the left eye with OHT and that in the normal right eye (ΔIOP). The ΔIOP of the 5-weekly post-HSI IOP measurements were averaged and constitute the Mean ΔIOP for each animal. For each group, ten (10) animals with a sustained IOP elevation in the OHT eye were selected from a larger pool and groups were matched for the Mean ΔIOP. Other animals were removed from the study and euthanized.

glaucoma human patients = assay: Example 2: efficacy of laquinimod for treating patients afflicted with glaucoma; format: in vivo
Experimental: Example 2: Assessment of Efficacy of laquinimod for Treating Patients Afflicted with Glaucoma Periodic (e.g., daily or twice daily) administration of laquinimod (oral or topical) is effective in treating glaucoma human patients. Periodic (e.g., daily or twice daily) administration of laquinimod (oral or topical) is effective to reduce a glaucoma-associated symptom in the subject. A laquinimod composition as described herein is administered systematically or locally to the eye of a subject suffering from glaucoma. The administration of the composition is effective to treat the subject suffering from glaucoma. The administration of the composition is also effective to reduce a glaucoma-associated symptom of glaucoma in the subject.

[2] = test system: Th1 (T helper 1 cell) to Th2 (T helper 2 cell) shift; settings: animal studies (Yang, 2004; Brück, 2011); cited from earlier work
[3] = test system: genes related to antigen presentation and corresponding inflammatory pathways; settings: mainly via the NFkB pathway (Gurevich, 2010); cited from earlier work
[4] = human subject with glaucoma, systemic or local administration to the eye

Compound: CCN(C(=O)c1c(O)c2c(Cl)cccc2n(C)c1=O)c1ccccc1 [Laquinimod]
- Mean ΔIOP (OHT minus Non-OHT) (Mean±SD) ([1]; Group 1, topical 1% laquinimod): 9.1±2.2 mmHg
- Mean ΔIOP (OHT minus Non-OHT) (Mean±SD) ([1]; Group 3, topical 4% laquinimod): 9.3±2.7 mmHg
- Mean ΔIOP (OHT minus Non-OHT) (Mean±SD) ([1]; Group 4, topical 0.25% laquinimod): 9.2±1.5 mmHg
- Mean ΔIOP (OHT minus Non-OHT) (Mean±SD) ([1]; Group 5, oral 0.1% laquinimod): 9.1±2.9 mmHg
- Treating glaucoma / reducing a glaucoma-associated symptom (glaucoma human patients; human patients, periodic (e.g. daily or twice daily) oral or topical administration): effective
- Reduction of RGC damage and/or RGC loss, improvement of RGC viability (glaucoma human patients; [4]): effective to reduce RGC damage and/or RGC loss
- Reduction of intraocular pressure (glaucoma human patients; [4]): effective to reduce intraocular pressure
- Th1 to Th2 shift [2]: causes a Th1
- suppression of genes related to antigen presentation and corresponding inflammatory pathways [3]: induced suppression
